Measurements reported in patent US20260132128A1, “COMPOUND FOR RECOVERING P53 MUTATION FUNCTION AND USE THEREOF” (SHENZHEN ZHONGGE BIOLOGICAL TECHNOLOGY CO., LTD., priority 2022, published 2026).
Marks after values point to notes of the source that are not given here.

Key:
p53 Y220C [1] = biological target: T1, p53 Y220C (Homo sapiens, UniProt P04637, P309S/R273H/Y220C); assay: DNA binding test (HTRF): binding of P53Y220C protein to DNA; assay type: biochemical; settings: HTRF, activation of p53 Y220C (aa 94-312) binding to biotin DNA
T1 construct: a truncated mutant containing only amino acids 94-312 of p53; made in house; host or cells: E. coli
Description: (§1) In order to detect the ability of the aforementioned compounds to increase the binding of P53Y220C protein to DNA, the binding activity of p53 Y220C was measured by homogeneous time-resolved fluorescence (HTRF). Recombinant His-tagged p53 Y220C for HTRF measurement was expressed in bacteria E. coli. The recombinant protein was a truncated mutant containing only amino acids 94-312 of p53, and its sequence was […] […] VEGNLR […] TFRh[…] […]. The sense strand of the DNA double strand was 5′-[…]-3′, with a biotin tag at the 5′ end for activity assay, and the antisense strand was 5′-[…]-3′ 40 mL of assay buffer (20 mM Tris HCL, pH 7.5, 50 mM NaCl, 2 mM MgCl2, 0.02% Tween 20, 0.01% BSA, 1 mM DTT) was prepared. 10 mM compound was prepared and subjected to 3-fold dilution to obtain 10 dose gradient dilutions of the compound. 20 nL of the compound was added to a 384-well assay plate (PerkinElmer 6007299) using an Echo 655 Liquid Handler. P53Y220C protein was dissolved in assay buffer to reach a final concentration of 150 nM, and 5 μL thereof was added to each well, and incubated at room temperature for 5 min. DNA was dissolved in assay buffer to reach a final concentration of 150 nM, and 5 μL thereof was added to each well, and incubated at room temperature for 15 min. Anti 6HIS-XL665 (Cisbio 61HISXLB) was dissolved in assay buffer to reach a final concentration of 20 nM, and 5 μL thereof was added to each well. Streptavidin-Eu cryptate (Cisbio 610SAKLA) was dissolved in assay buffer to reach a final concentration of 0.625 nM, and 5 μL thereof was added to each well, and incubated at 27° C. for 1 hour. The plate was then read for signal values on an Envision (PerkinElmer 2105-0020) plate reader at 665 nm and 615 nm, respectively. […] Activation rate={(A-C)/(C)}*100%, A=(signal value at 665 nm/signal value at 615 nm); C=average signal of negative control (wherein, negative control referred to 0.1% DMSO).

p53 Y220C [2] = biological target: T2, p53 Y220C (Homo sapiens, UniProt P04637, Y220C); assay: as above; assay type: biochemical; settings: multiple ratio of EC50 of the compound to the reference compound, DNA binding test
T2 construct: a truncated mutant containing only amino acids 94-312 of p53; made in house; host or cells: E. coli
Description: as §1

NUGC-3 cells = assay: NUGC-3 cell proliferation assay (CTG); assay type: cell-based, human; settings: for GI50: 6 days, CTG; for Compound GI50 (nM)/Reference compound GI50 (nM): multiple ratio of GI50 of the compound to the reference compound
Description: In order to detect the inhibitory effect of the aforementioned compounds on the proliferation ability of NUGC-3 cells, 250 NUGC-3 cells (Nanjing Cobioer Biosciences Co., Ltd., CBP60492) were seeded into a 384-well plate (Corning 3765), 35 μL per well, and incubated overnight in a constant temperature incubator at 37° C. and 5% CO2. Then, 40 nL of the compound was added to the 384-well plate using an Echo 655 Liquid Handler, with a maximum final concentration of 10 μM, 1:3 serial dilutions, and a total of 10 doses. The culture was performed at 37° C. and 5% CO2 for 6 days. The plate was taken out from the incubator and equilibrated at room temperature for 10 minutes. 20 μL of CTG (Promage G7572) was added to each well of the plate according to the platemap. The plate was centrifuged at 1000 rpm for 1 min. The lysis of cells was induced by mixing on a shaker for 2 min. The plate was centrifuged at 1000 rpm for 1 min. Incubation was performed at room temperature for 10 min to stabilize luminescence signals. Luminescence values were recorded by Envision (PerkinElmer 2105-0020). GraphPad 9.0 was used to fit the inhibition rate and compound concentration into a nonlinear regression curve (dose response-variable slope) to calculate GI50, inhibition rate={1−(A−B)/(C−B)}*100%, A=signal value of compound; B=average signal of blank control; C=average signal of negative control (wherein negative control was 0.1% DMSO).

SMILES | EC50 (p53 Y220C [1]) | Compound EC50 (nM)/Reference compound EC50 (nM) (p53 Y220C [2]) | GI50 (NUGC-3 cells; Homo sapiens, NUGC-3, 144 h) | Compound GI50 (nM)/Reference compound GI50 (nM) (NUGC-3 cells) | GI50 (NUGC-3 cells)
COCCNC(=O)c1ccc(NCC#Cc2nc3c(NC4CCN(C)CC4)cccn3c2CC(F)(F)F)c(OC)c1 [Compound 30] | 100 to 500 nM | C (C: EC50 of the compound≥3*EC50 of the reference compound) | 1000 to 5000 nM | C (C: GI50 of the compound ≥ 3 * GI50 of the reference compound) | –
[2H]C([2H])([2H])NC(=O)c1ccc(NCC#Cc2cc3c(NC4CCC(N5CC6(COC6)C5)CC4F)cccn3c2CC(F)(F)F)c(OC2CC2)c1 (stereo not drawn) [Compound 76d] | < 100 nM | A (A: EC50 of the compound≤EC50 of the reference compound) | < 1000 nM | A (A: GI50 of the compound ≤ GI50 of the reference compound) | –
CNC(=O)c1ccc(NCC#Cc2nc3c(NC4CCN(C)CC4)cccn3c2CC(F)(F)F)c(F)c1 [Compound 13] | 100 to 500 nM | B (B: EC50 of the reference compound<EC50 of the compound≤3.0*EC50 of the reference compound) | 1000 to 5000 nM | C (C: GI50 of the compound ≥ 3 * GI50 of the reference compound) | –
COCCNC(=O)c1ccc(NCC#Cc2nc3c(N[C@@H]4CC[C@@H](N5CC6(COC6)C5)C[C@@H]4F)cccn3c2CC(F)(F)F)c(OC)c1 [Compound 52] | < 100 nM | A (A: EC50 of the compound≤EC50 of the reference compound) | – | C (C: GI50 of the compound ≥ 3 * GI50 of the reference compound) | –
CNC(=O)c1cc(OC)c(NCC#Cc2nc3c(N[C@H]4CC[C@H](N5CC6(COC6)C5)CC4)cccn3c2CC(F)(F)F)cc1F [Compound 27] | < 100 nM | B (B: EC50 of the reference compound<EC50 of the compound≤3.0*EC50 of the reference compound) | – | C (C: GI50 of the compound ≥ 3 * GI50 of the reference compound) | –
COc1cc(S(=N)(=O)C2CC2)ccc1NCC#Cc1cc2c(NC3CCN(C)CC3F)cccc2n1CC(F)(F)F (single isomer, unassigned) [Compound 39d] | < 100 nM | A (A: EC50 of the compound≤EC50 of the reference compound) | – | A (A: GI50 of the compound ≤ GI50 of the reference compound) | –
CNC(=O)c1ccc(NCc2nnc(-c3nc4c(NC5CCN(C)CC5)cccn4c3CC(F)(F)F)s2)c(OC)c1 [Compound 18] | 100 to 500 nM | C (C: EC50 of the compound≥3*EC50 of the reference compound) | 1000 to 5000 nM | C (C: GI50 of the compound ≥ 3 * GI50 of the reference compound) | –
COc1cc(C(=O)NC2CCOCC2)ccc1NCC#Cc1nc2c(NC3CCN(C)CC3)cccn2c1CC(F)(F)F [Compound 29] | 100 to 500 nM | C (C: EC50 of the compound≥3*EC50 of the reference compound) | 1000 to 5000 nM | C (C: GI50 of the compound ≥ 3 * GI50 of the reference compound) | –
CNC(=O)c1ccc(NCC#Cc2nc3c(NC4CC[C@@H](N5CCC5)C[C@@H]4F)cccn3c2CC(F)(F)F)c(OC)c1 (stereo partly drawn) [Compound 40] | < 100 nM | B (B: EC50 of the reference compound<EC50 of the compound≤3.0*EC50 of the reference compound) | < 1000 nM | B (B: GI50 of the reference compound < GI50 of the compound ≤ 3.0 * GI50 of the reference compound) | –
Cc1cc[nH]c1C(=O)NCC#Cc1nc2c(NC3CCN(C)CC3)cccn2c1CC(F)(F)F [Compound 28] | 500 to 1000 nM | C (C: EC50 of the compound≥3*EC50 of the reference compound) | – | C (C: GI50 of the compound ≥ 3 * GI50 of the reference compound) | –
[2H]C([2H])([2H])NC(=O)c1ccc(NCC#Cc2cc3c(NC4CCC(N5CC6(COC6)C5)CC4F)cccn3c2CC(F)(F)F)c(OCF)c1 (stereo not drawn) [Compound 78d] | < 100 nM | A (A: EC50 of the compound≤EC50 of the reference compound) | < 1000 nM | A (A: GI50 of the compound ≤ GI50 of the reference compound) | –
CNC(=O)c1ccc(NCC#Cc2nc3c(NC4CCC(N(C)[C@@H]5CCOC5)CC4)cccn3c2CC(F)(F)F)c(OC)c1 (stereo partly drawn) [Compound 33] | 100 to 500 nM | C (C: EC50 of the compound≥3*EC50 of the reference compound) | – | C (C: GI50 of the compound ≥ 3 * GI50 of the reference compound) | –
CNC(=O)c1ccc(NCC#Cc2nc3c(NC4CCN(C)CC4)cncn3c2CC(F)(F)F)c(OC)c1 [Compound 2] | ≥ 1000 nM | C (C: EC50 of the compound≥3*EC50 of the reference compound) | – | C (C: GI50 of the compound ≥ 3 * GI50 of the reference compound) | –
CNC(=O)c1ccc(NCC#Cc2nc3c(NC4CCC(N5CC6CCC(C5)O6)CC4)cccn3c2CC(F)(F)F)c(OC)c1 (stereo not drawn) [Compound 34] | 100 to 500 nM | C (C: EC50 of the compound≥3*EC50 of the reference compound) | – | C (C: GI50 of the compound ≥ 3 * GI50 of the reference compound) | –
CN1CCC(Nc2cccn3c(CC(F)(F)F)c(-c4noc(CNC(=O)c5ccn(C(C)(C)C)c5)n4)nc23)CC1 [Compound 17] | 500 to 1000 nM | C (C: EC50 of the compound≥3*EC50 of the reference compound) | – | C (C: GI50 of the compound ≥ 3 * GI50 of the reference compound) | –
COc1cc(S(=N)(=O)C2CC2)ccc1NCC#Cc1cc2c(NC3CCN(C)CC3F)cccc2n1CC(F)(F)F (single isomer, unassigned) [Compound 39c] | < 100 nM | B (B: EC50 of the reference compound<EC50 of the compound≤3.0*EC50 of the reference compound) | – | A (A: GI50 of the compound ≤ GI50 of the reference compound) | –
COc1cc(C(=O)N2CCC2)ccc1NCC#Cc1nc2c(N[C@@H]3CC[C@@H](N4CC5(COC5)C4)C[C@@H]3F)cccn2c1CC(F)(F)F [Compound 51] | < 100 nM | A (A: EC50 of the compound≤EC50 of the reference compound) | – | C (C: GI50 of the compound ≥ 3 * GI50 of the reference compound) | –
CNC(=O)c1ccc(NCC#Cc2nc3c(NC4CCC(N5CC6(COC6)C5)CC4F)cccn3c2CC(F)(F)F)c(OC)c1 (single isomer, unassigned) [Compound 35-6e] | 100 to 500 nM | C (C: EC50 of the compound≥3*EC50 of the reference compound) | – | C (C: GI50 of the compound ≥ 3 * GI50 of the reference compound) | ≥ 5000 nM
CNC(=O)c1ccc(NCC#Cc2nc3c(NC4CCC(N5CC6(COC6)C5)CC4F)cccn3c2CC(F)(F)F)c(OC)c1 (single isomer, unassigned) [Compound 35-6j] | < 100 nM | C (C: EC50 of the compound≥3*EC50 of the reference compound) | – | C (C: GI50 of the compound ≥ 3 * GI50 of the reference compound) | < 1000 nM
